Experimental data from US8153593B2, “Transglutaminase inhibitors and methods of use thereof” (The Board of Trustees of the Leland Stanford Junior …, priority 2003, dated 2012).
Each block holds one molecule with its values, some of them ahead of it. *1 amine or outer side, *2 acyl side, *3 side chain or, on linkers, in order; H or OH if unused. Where a SMILES comes first, the peptide text is derived from it. [ ]: non-standard residue; d: D form. X2 = [N-]=[N+]=CC(=O)CC[C@@H](N[*:1])C(=O)[*:2]; DON = [N-]=[N+]=CC(=O)CC[C@H](N)C(=O)O

What was measured:
human TG2 [1] = target: T1, human TG2 (Homo sapiens, UniProt P21980); assay: TG2 inhibition kinetics by the method of Hausch et al.; assay type: biochemical; parameters: ki/KI: unit not given here
T1 sequence (P21980 1-687): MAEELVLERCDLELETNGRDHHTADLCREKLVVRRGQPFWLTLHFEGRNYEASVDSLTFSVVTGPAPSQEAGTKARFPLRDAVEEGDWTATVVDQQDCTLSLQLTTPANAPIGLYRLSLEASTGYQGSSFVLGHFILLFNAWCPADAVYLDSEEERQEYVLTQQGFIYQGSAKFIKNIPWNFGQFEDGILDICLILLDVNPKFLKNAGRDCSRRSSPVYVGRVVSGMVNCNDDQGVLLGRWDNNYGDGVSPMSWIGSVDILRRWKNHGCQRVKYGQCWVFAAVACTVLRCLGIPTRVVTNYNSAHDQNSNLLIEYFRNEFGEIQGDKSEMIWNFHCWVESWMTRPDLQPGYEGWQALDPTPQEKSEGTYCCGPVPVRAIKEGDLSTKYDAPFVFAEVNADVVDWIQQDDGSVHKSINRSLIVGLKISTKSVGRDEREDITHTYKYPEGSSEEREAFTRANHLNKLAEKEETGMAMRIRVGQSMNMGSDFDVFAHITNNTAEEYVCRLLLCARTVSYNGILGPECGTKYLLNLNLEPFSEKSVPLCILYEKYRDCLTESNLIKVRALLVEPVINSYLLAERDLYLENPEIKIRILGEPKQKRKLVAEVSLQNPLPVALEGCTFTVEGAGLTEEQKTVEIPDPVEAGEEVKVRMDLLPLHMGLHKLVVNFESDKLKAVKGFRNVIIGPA
From the text: Earlier disclosures had reported the synthesis and evaluation of a promising peptidic inhibitor of human TG2, (SEQ ID NO:1) Ac-Pro-Gln-Pro-DON-Leu-Pro-Phe-NH2. We now disclose a truncated analog that is easier to synthesize and has greater activity.
Characterization: (SEQ ID NO:3) Ac-Pro-DON-Leu-Pro-Phe-NH2 was characterized by the method of Hausch et al. (Hausch et al., Chem. Biol. (2003) 10, 225-231).

tumor associated TG2 = target: T2, tumor associated TG2 (Mus musculus, UniProt P21981); assay: Intracranial DBT tumor associated TG2 activity after dosing; assay type: in vivo, mice
T2 construct: from tissue; host or cells: intracranial DBT glioblastoma tumours from dosed mice
T2 sequence (P21981 1-686): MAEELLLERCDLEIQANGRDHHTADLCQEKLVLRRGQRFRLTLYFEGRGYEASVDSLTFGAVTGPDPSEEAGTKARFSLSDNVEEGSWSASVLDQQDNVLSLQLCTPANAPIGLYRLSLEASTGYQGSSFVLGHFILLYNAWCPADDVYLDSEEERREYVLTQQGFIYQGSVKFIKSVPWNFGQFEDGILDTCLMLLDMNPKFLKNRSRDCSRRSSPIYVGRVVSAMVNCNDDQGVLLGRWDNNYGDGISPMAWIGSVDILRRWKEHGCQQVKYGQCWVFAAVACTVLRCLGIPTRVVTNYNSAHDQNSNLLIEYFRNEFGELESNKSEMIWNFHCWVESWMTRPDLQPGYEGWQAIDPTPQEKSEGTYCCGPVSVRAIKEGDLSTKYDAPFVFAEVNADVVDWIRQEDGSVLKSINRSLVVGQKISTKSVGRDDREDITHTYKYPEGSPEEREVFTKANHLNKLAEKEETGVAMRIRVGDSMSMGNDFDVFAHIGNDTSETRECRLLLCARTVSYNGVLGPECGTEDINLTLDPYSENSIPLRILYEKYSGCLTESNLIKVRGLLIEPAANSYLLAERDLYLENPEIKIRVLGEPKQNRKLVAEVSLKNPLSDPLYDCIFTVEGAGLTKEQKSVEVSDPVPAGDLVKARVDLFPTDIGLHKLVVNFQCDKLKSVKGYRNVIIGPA
Description: To test whether therapeutic doses of KCC009 can modulate TG2 activity associated with intracranial glioblastomas, DBT tumors were injected intracranially in mice. As judged by MRI, the mice consistently established intracranial tumors after 7-10 days following injections, which, if untreated, caused death by 2-3 weeks. In an initial dose-finding experiment, cohorts of mice were administered 4 daily doses of vehicle or KCC009 (12.5 mg/kg, 25 mg/kg and 50 mg/kg) starting on day 11 after intra-cranial injections. Twenty-four hours later, the mice were sacrificed and tumors analyzed. […] Based on these findings a dose of 35 mg/kg was used for subsequent experiments in mice harboring intracranial DBT tumors.
As summarized in Table 4, KCC009 treatment led to significant suppression of TG2 activity after 15 min, whereas enzyme activity recovers fully by 24 h. Both uninhibited and inhibited activity levels are consistent with similar measurements in the small intestinal mucosa (data not shown).

[2] = target: T3, recombinant human tissue transglutaminase (Homo sapiens, UniProt P21980); assay: tTGase inhibition assay, residual activity by glutamate dehydrogenase coupled assay; assay type: biochemical; conditions: dihydroisoxazoles, Table 1
T3 construct: made in house
T3 sequence (P21980 1-687): T1 sequence (P21980 1-687)

[3] = target: T4, bovine epidermal transglutaminase (Bos taurus, UniProt A6QP57); conditions: cited from earlier work
T4 sequence (A6QP57 1-691): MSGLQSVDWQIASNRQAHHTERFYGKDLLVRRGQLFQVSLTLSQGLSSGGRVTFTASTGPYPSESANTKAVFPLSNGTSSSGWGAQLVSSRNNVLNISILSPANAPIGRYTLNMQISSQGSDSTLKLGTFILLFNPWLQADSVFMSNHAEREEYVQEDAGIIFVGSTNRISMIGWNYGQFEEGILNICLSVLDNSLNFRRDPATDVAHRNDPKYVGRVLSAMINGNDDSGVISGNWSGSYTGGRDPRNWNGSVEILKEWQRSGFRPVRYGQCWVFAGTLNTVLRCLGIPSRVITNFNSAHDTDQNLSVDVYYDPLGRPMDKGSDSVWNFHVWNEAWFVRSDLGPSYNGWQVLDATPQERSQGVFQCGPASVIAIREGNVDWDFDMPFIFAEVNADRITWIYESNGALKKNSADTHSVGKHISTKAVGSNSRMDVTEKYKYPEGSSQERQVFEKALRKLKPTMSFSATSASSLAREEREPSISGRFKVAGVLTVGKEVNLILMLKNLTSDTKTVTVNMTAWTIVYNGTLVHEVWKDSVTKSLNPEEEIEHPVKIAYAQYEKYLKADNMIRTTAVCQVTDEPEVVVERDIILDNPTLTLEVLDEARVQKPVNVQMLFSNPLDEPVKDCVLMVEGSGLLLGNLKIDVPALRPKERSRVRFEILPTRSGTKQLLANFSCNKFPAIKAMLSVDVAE

human TG2 [4] = target: T1, human TG2; conditions: cited from earlier work
[5] = target: T5, human TG2 (tissue transglutaminase, transglutaminase 2) (human, UniProt P21980 1-687, limits assumed); assay: TG2 enzyme inactivation kinetics by the method of Hausch et al.
T5 construct: also called tTGase; tTG
T5 sequence (looked up): T1 sequence (P21980 1-687)

ki (human TG2 [1]): 0.5 min⁻¹
ki/KI (human TG2 [1]): 8.3
Molecule: CC(=O)N1CCC[C@H]1C(=O)N[C@H](CCC(=O)C=[N+]=[N-])C(=O)N[C@@H](CC(C)C)C(=O)N1CCC[C@H]1C(=O)N[C@@H](Cc1ccccc1)C(N)=O [Ac-Pro-DON-Leu-Pro-Phe-NH2] (Ac-P[X2]LPF-NH2)

kinh [2]: 1.4 min⁻¹
Molecule: O=C(N[C@@H](Cc1ccccc1)C(=O)NCC1CC(Br)=NO1)OCc1ccccc1 (stereo partly drawn) [Compound 49, {(S)-1-[(3-Bromo-4,5-dihydro-isoxazol-5-ylmethyl)-carbamoyl]-2-phenyl-ethyl}-carbamic acid benzyl ester]
inhibition of bovine epidermal transglutaminase [3]: is an inhibitor

The remaining lines, values behind:

Molecule: O=NN(CCCl)C(=O)NCCCl [BCNU, reference compound]
TG2 activity-BCNU alone (tumor associated TG2; 15 min after last of four daily doses): 2.1 ± 0.2 (n = 4) nmol/h/mg protein
TG2 activity-BCNU alone (tumor associated TG2; 24 h after last of four daily doses): 2.2 ± 0.3 (n = 2) nmol/h/mg protein

Molecule: CC(=O)CSc1n(C)c(C)c(C)[n+]1C.[Cl-] [L682777]
inhibition of human TG2 (human TG2 [4]): inhibits human TG2

B1: Ac-Pro-DON-Leu-Pro-Phe-NH2 (DON=6-diazo-5-oxo-norleucine) (peptide)
peptide: Ac-P[DON]LPF-NH2
SMILES: CC(=O)N1CCC[C@H]1C(=O)N[C@@H](CCC(=O)C=[N+]=[N-])C(=O)N[C@@H](CC(C)C)C(=O)N1CCC[C@H]1C(=O)N[C@@H](Cc1ccccc1)C(N)=O
notes: Position 2 is the non-natural residue DON; also called truncated analog of Ac-Pro-Gln-Pro-DON-Leu-Pro-Phe-NH2
Ki [5]: 60 nM
ki (inactivation rate constant) [5]: 0.5 min⁻¹
